Laboratory results: ChEMBL document CHEMBL3390830, “Targeting epigenetic modifiers: Inhibitors of histone methyltransferases” (Medchemcomm, 2010)

How the values were obtained:
[1] = biological target: T1, Protein arginine N-methyltransferase 1 (Homo sapiens, UniProt Q99873); test: Inhibition of recombinant human GST-tagged PRMT1 assessed as inhibition of histone methylation
[2] = biological target: T2, Histone-lysine N-methyltransferase EHMT2 (Homo sapiens, UniProt Q96KQ7); test: Inhibition of G9a (685 to 1000) (unknown origin) expressed in Escherichia coli BL21 assessed as reduction of H3K9me2 level by DELFIA assay
T2 sequence (Q96KQ7 whole entry): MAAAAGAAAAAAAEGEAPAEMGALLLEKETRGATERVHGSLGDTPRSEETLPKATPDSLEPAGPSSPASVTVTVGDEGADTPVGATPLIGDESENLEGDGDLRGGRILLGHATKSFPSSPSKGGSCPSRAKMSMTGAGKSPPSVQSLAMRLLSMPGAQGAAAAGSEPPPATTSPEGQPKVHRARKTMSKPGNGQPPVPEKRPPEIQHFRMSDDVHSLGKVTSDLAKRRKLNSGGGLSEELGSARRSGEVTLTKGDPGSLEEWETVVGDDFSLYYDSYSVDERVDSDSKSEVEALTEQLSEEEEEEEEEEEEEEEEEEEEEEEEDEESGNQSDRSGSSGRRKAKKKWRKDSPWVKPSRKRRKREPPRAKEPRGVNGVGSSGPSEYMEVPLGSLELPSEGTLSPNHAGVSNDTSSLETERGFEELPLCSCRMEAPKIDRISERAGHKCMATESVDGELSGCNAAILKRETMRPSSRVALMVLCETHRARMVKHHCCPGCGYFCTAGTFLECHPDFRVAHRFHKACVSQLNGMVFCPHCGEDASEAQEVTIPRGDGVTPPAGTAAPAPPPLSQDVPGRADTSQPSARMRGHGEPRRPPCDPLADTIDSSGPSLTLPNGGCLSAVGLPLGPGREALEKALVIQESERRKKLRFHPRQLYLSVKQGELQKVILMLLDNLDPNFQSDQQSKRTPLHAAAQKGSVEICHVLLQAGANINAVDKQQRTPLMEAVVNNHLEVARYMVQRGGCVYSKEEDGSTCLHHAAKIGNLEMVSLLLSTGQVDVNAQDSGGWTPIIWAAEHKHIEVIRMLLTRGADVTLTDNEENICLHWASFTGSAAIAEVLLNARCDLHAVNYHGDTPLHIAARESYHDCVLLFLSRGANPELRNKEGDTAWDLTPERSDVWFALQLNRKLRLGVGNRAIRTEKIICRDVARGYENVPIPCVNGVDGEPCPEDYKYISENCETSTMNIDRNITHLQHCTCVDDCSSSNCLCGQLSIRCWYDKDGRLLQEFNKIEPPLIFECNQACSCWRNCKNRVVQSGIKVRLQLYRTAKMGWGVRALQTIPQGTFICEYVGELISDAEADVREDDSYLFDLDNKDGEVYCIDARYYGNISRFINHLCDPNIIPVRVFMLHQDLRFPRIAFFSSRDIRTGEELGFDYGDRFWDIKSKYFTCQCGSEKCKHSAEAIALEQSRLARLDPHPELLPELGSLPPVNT

[3] = biological target: T1, Protein arginine N-methyltransferase 1; test: Inhibition of GST-fused PRMT1 (unknown origin) expressed in Escherichia coli BL21 assessed as reduction of asymmetric H4R3me2 level by DELFIA assay
[4] = biological target: T3, NAD-dependent protein deacetylase sirtuin-1 (Homo sapiens, UniProt Q96EB6); test: Inhibition of recombinant human N-terminal GST-tagged full length SIRT1 expressed in Escherichia coli BL21(DE3) using ZMAL as substrate after 4 hrs by homogeneous fluorescent deacetylase assay
T3 sequence (Q96EB6 whole entry): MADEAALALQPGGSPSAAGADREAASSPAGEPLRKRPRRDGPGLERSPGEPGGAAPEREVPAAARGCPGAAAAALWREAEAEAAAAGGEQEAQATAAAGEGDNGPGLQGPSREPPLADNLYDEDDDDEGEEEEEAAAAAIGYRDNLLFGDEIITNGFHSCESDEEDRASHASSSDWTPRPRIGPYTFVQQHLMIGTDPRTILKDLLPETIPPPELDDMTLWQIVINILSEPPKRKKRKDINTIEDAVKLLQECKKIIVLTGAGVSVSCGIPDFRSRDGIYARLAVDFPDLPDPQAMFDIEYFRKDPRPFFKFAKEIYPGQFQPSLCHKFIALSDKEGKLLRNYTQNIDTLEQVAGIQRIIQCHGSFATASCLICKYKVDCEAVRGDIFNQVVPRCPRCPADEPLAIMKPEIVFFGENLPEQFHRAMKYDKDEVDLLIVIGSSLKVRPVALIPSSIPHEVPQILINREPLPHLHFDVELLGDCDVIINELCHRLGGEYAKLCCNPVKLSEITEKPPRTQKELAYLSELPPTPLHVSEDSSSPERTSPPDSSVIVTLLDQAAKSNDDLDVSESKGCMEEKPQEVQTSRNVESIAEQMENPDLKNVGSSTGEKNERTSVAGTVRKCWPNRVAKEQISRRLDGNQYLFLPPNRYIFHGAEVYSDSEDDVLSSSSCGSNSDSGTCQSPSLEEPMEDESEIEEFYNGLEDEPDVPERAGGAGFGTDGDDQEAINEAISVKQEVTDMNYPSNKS

[5] = biological target: T1, Protein arginine N-methyltransferase 1; test: Inhibition of human PRMT1 using GST-tagged Npl3 as substrate preincubated for 15 mins followed by enzyme addition measured after 1 hr by colorimetric assay
[6] = biological target: Histone-lysine N-methyltransferase Su(var)3-9 (Drosophila melanogaster, UniProt P45975); test: Inhibition of Drosophila melanogaster Su(var)3-9
Histone-lysine N-methyltransferase Su(var)3-9, sequence (P45975 whole entry): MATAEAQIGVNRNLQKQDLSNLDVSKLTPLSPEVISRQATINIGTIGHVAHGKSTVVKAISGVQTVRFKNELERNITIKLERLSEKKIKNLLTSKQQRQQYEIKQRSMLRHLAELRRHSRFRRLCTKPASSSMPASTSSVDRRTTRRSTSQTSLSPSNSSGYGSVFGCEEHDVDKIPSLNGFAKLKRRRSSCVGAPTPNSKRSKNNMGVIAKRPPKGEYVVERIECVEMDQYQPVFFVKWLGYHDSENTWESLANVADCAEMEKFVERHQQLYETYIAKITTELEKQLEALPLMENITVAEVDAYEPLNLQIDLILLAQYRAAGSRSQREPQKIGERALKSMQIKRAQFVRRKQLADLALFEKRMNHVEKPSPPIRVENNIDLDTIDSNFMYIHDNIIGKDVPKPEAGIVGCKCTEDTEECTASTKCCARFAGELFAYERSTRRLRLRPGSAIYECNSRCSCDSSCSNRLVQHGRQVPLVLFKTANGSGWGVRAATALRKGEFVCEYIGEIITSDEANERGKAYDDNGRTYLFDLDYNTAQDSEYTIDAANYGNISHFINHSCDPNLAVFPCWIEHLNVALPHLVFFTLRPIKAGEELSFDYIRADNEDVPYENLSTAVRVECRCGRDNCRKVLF

[7] = biological target: T2, Histone-lysine N-methyltransferase EHMT2; test: Inhibition of G9a (unknown origin)

T1 sequence (Q99873 whole entry): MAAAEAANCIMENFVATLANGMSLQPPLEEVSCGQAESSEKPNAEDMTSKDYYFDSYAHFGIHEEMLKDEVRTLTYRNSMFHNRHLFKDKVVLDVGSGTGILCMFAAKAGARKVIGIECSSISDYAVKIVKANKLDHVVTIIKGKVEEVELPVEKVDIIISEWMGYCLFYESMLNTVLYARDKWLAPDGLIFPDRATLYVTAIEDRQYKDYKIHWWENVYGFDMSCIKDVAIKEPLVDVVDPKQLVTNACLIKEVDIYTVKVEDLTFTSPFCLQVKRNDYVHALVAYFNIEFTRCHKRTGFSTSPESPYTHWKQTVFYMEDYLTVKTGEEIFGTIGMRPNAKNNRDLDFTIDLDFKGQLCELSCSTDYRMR

For `COc1ccc(/N=N/c2c(S(=O)(=O)O)cc3cc(Cc4nc(Cl)nc(Cl)n4)ccc3c2O)cc1`, the IC50 [1] was 4 µM.

`COc1ccc(C(=O)Oc2ccc(CCn3c(NC(=O)c4ccc(C(F)(F)F)cc4)nc4cc(C(=O)O)ccc43)cc2)cc1` showed an IC50 [2] of 5 µM and an IC50 [3] of 6 µM.

`O=C(Nc1ccc2c(O)cc(S(=O)(=O)O)cc2c1)Nc1ccc2c(O)cc(S(=O)(=O)O)cc2c1` gave an IC50 [4] of 32 µM.

Work on `O=C1OC2(c3ccccc31)c1cc(Br)c(O)c(Br)c1Oc1c2cc(Br)c(O)c1Br` [EOSIN] yielded an IC50 [5] of 1 µM.

`CN1C(=O)[C@@]23C[C@]4([C@]56C[C@@]78SS[C@@](CO)(C(=O)N7[C@H]5Nc5ccccc56)N(C)C8=O)c5ccccc5N[C@@H]4N2C(=O)[C@]1(CO)SS3` [CHAETOCIN] gave an IC50 [6] of 0.8 µM and an IC50 [7] of 2.5 µM.
